A short description of data set [1]: refractive index (Na D-line) (dimensionless); wn = mass fraction of the nth substance listed. The note with it: 313.15 K, 88.4 kPa, Liquid, Standard Abbe refractometry.
Data set [2] can be described thus: wn = mass fraction of the nth substance listed. The settings on record: 313.15 K, 88.4 kPa, Liquid; for viscosity: Capillary tube (Ostwald / Ubbelohde) method; for mass density: Pycnometric method.

Broadly, the refractive index is a measure of how strongly the sample bends light. As a reminder, the viscosity is the resistance of a fluid to flow. By mass density is commonly meant the mass of a sample divided by its volume.

Numbers after ± are expanded uncertainties.

As to `O=S(=O)([O-])[O-].[K+].[K+]` [potassium sulfate] + O, the refractive index in data set [1] (w1 = 0.129) was determined as 1.3466 ± 0.0006. In data set [2] (w1 = 0.129), the viscosity worked out at 0.8181 ± 0.082 mPa·s and the mass density stood at 1097.5 ± 2.3 kg/m3.
Consider `O=S(=O)([O-])[O-].[Na+].[Na+]` [sodium sulfate] + O, for which the refractive index in data set [1] (w1 = 0.3237) was 1.3774 ± 0.0006. In data set [2] (w1 = 0.3237), the viscosity worked out at 2.871 ± 0.29 mPa·s and the mass density was found to be 1317.6 ± 3.7 kg/m3.

These data come from the NIST ThermoML archive (doi:10.1021/acs.jced.5b00992).
